Measurements taken from publication PMC10169861, “Structural mechanism of human oncochannel TRPV6 inhibition by the natural phytoestrogen genistein” (Nature Communications, 2023).
Substitutions are numbered along the chain they refer to. “And” between values parts separate entries of the source, which are not always exact repeats. Equal values may be shown once.

Key:
[1] = target: T1, H587A mutant TRPV6 (Homo sapiens, UniProt Q9H1D0, H627A); experiment: Fura-2-based measurement of Ca2+ uptake, H587A mutant channels; assay type: cell-based; conditions: for normalized change in F340/F380 (Ca2+ uptake relative to no genistein): H587A
T1 construct: Full-length wild-type or mutant human TRPV6 was expressed in HEK 293S cells as described above; expressed in transfected cells; host or cells: HEK 293S GnTI- cells, baculovirus (BacMam) transduction
T1 sequence (Q9H1D0 41-765 H627A limits assumed): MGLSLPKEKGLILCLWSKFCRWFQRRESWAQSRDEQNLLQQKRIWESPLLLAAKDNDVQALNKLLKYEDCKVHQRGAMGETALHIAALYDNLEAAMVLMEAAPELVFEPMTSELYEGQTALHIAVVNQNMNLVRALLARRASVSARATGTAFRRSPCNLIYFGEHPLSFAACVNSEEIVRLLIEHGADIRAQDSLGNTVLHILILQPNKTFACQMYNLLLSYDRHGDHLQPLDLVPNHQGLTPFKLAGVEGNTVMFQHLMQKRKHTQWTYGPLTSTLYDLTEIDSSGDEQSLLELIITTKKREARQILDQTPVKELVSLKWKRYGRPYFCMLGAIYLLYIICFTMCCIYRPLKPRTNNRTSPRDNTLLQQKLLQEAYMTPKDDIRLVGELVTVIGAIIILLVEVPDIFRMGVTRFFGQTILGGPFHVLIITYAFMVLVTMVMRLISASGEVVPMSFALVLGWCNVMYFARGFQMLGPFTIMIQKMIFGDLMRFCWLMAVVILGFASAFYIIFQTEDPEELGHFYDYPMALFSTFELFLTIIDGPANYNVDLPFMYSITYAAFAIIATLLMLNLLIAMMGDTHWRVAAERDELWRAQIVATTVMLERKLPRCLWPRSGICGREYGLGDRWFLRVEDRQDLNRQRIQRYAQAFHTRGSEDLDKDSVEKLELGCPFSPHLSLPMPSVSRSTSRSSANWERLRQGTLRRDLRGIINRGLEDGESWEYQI

[2] = target: T2, wild-type human TRPV6 (hTRPV6) (Homo sapiens, UniProt Q9H1D0); experiment: Fura-2-based ratiometric measurement of Ca2+ uptake in hTRPV6-expressing HEK 293S cells; assay type: cell-based; conditions: for normalized change in F340/F380 (Ca2+ uptake relative to no genistein): WT
T2 construct: Full-length wild-type or mutant human TRPV6 was expressed in HEK 293S cells as described above; expressed in transfected cells; host or cells: HEK 293S GnTI- cells, baculovirus (BacMam) transduction
T2 sequence (Q9H1D0 41-765 limits assumed): T1 sequence (Q9H1D0 41-765 H627A limits assumed) with A587H

[3] = target: T3, H582A-H587A mutant TRPV6 (Homo sapiens, UniProt Q9H1D0, H622A/H627A); experiment: Fura-2-based measurement of Ca2+ uptake, H582A-H587A mutant channels; assay type: cell-based; conditions: for normalized change in F340/F380 (Ca2+ uptake relative to no genistein): H582A-H587A
T3 construct: Full-length wild-type or mutant human TRPV6 was expressed in HEK 293S cells as described above; expressed in transfected cells; host or cells: HEK 293S GnTI- cells, baculovirus (BacMam) transduction
T3 sequence (Q9H1D0 41-765 H622A/H627A limits assumed): T1 sequence (Q9H1D0 41-765 H627A limits assumed) with H582A

[4] = target: T2, wild-type human TRPV6 (hTRPV6); experiment: Whole-cell patch-clamp recording of hTRPV6-mediated currents in HEK 293S cells; assay type: cell-based; conditions: for TRPV6-mediated current amplitude at −60 mV, normalized to the value in the absence of genistein: WT
[5] = target: T4, H582A mutant TRPV6 (Homo sapiens, UniProt Q9H1D0, H622A); experiment: Fura-2-based measurement of Ca2+ uptake, H582A mutant channels; assay type: cell-based; conditions: for normalized change in F340/F380 (Ca2+ uptake relative to no genistein): H582A
T4 construct: Full-length wild-type or mutant human TRPV6 was expressed in HEK 293S cells as described above; expressed in transfected cells; host or cells: HEK 293S GnTI- cells, baculovirus (BacMam) transduction
T4 sequence (Q9H1D0 41-765 H622A limits assumed): T1 sequence (Q9H1D0 41-765 H627A limits assumed) with H582A, A587H

[6] = target: human TRPV6 (human); experiment: cryo-EM structure; purified hTRPV6 in 150 mM NaCl, 20 mM Tris-HCl pH 8.0, 1 mM βME, 0.01% GDN, 0.001% CHS, with 2 mM genistein; two populations of particles: open (C4, 2.71 Å) and genistein-bound (C1, 2.66 Å)
[7] = Conc 10, individual experiments
[8] = Conc 30, individual experiments
[9] = Conc 100, individual experiments
[10] = Conc 300, individual experiments
[11] = Conc 1000, individual experiments
[12] = Conc 3000, individual experiments
[13] = Conc 10000, individual experiments

`O=c1c(-c2ccc(O)cc2)coc2cc(O)cc(O)c12` [genistein, 4′,5,7-trihydroxyisoflavone] was tested. Which IC50 [1] did it give?
The IC50 was 267 ± 29 µM.

What about the “Hill coefficient nHill” value ([1]; H587A mutant, n = 3) of the same molecule?
The value was 0.67 ± 0.03.

What about the “normalized change in F340/F380 (Ca2+ uptake relative to no genistein)” value [1, 7] of the same molecule?
The value was 0.9155 and 0.8981 and 0.9014.

And the “normalized change in F340/F380 (Ca2+ uptake relative to no genistein)” value [1, 8]?
Its value is 0.7349 and 0.8633 and 0.7848.

What about the “normalized change in F340/F380 (Ca2+ uptake relative to no genistein)” value [1, 9] of the same molecule?
The value was 0.5614 and 0.5516 and 0.49.

And the “normalized change in F340/F380 (Ca2+ uptake relative to no genistein)” value [1, 10]?
Its value is 0.505 and 0.498 and 0.5741.

And the “normalized change in F340/F380 (Ca2+ uptake relative to no genistein)” value [1, 11]?
Its value is 0.2958 and 0.3277 and 0.2981.

And the “normalized change in F340/F380 (Ca2+ uptake relative to no genistein)” value [1, 12]?
Its value is 0.1683 and 0.1914 and 0.1575.

And the “normalized change in F340/F380 (Ca2+ uptake relative to no genistein)” value [1, 13]?
Its value is 0.08605 and 0.071 and 0.06959.

What about the “normalized change in F340/F380 (Ca2+ uptake relative to no genistein)” value ([2]; Conc 10 (µM per Fig. 1c), individual experiments) of the same molecule?
Its value is 0.9427 and 0.8061 and 0.8429.

What about the “normalized change in F340/F380 (Ca2+ uptake relative to no genistein)” value [2, 8] of the same molecule?
Its value is 0.7049 and 0.7764 and 0.7537.

What about the “normalized change in F340/F380 (Ca2+ uptake relative to no genistein)” value [2, 9] of the same molecule?
The value was 0.5343 and 0.4706 and 0.5414.

What about the “normalized change in F340/F380 (Ca2+ uptake relative to no genistein)” value [2, 10] of the same molecule?
Its value is 0.3064 and 0.3178 and 0.351.

What about the “normalized change in F340/F380 (Ca2+ uptake relative to no genistein)” value [2, 11] of the same molecule?
Its value is 0.1486 and 0.1458 and 0.1663.

What about the “normalized change in F340/F380 (Ca2+ uptake relative to no genistein)” value [2, 12] of the same molecule?
Its value is 0.07643 and 0.09271.

And the IC50 ([2]; wild-type, 10 mM Ca2+ after pre-incubation, mean ± SEM, n = 3, read-out: IC50, inhibition of hTRPV6-mediated Ca2+ uptake)?
The IC50 was 113 µM.

What about the “Hill coefficient nHill, inhibition of Ca2+ uptake” value ([2]; wild-type, n = 3) of the same molecule?
The value was 0.77 ± 0.02.

What about the IC50 [3] of the same molecule?
The IC50 was 318 ± 45 µM.

And the “Hill coefficient nHill” value ([3]; H582A-H587A mutant, n = 3)?
Its value is 0.71 ± 0.06.

And the “normalized change in F340/F380 (Ca2+ uptake relative to no genistein)” value [3, 7]?
Its value is 0.8831 and 0.8274 and 0.7934.

What about the “normalized change in F340/F380 (Ca2+ uptake relative to no genistein)” value [3, 8] of the same molecule?
The value was 0.9307 and 0.8133 and 0.7372.

What about the “normalized change in F340/F380 (Ca2+ uptake relative to no genistein)” value [3, 9] of the same molecule?
Its value is 0.6996 and 0.5804 and 0.6176.

What about the “normalized change in F340/F380 (Ca2+ uptake relative to no genistein)” value [3, 10] of the same molecule?
The value was 0.6004 and 0.5392 and 0.6135 and 0.4739.

What about the “normalized change in F340/F380 (Ca2+ uptake relative to no genistein)” value [3, 11] of the same molecule?
Its value is 0.3135 and 0.3303.

And the “normalized change in F340/F380 (Ca2+ uptake relative to no genistein)” value [3, 12]?
The value was 0.1423 and 0.1604 and 0.1695.

What about the “normalized change in F340/F380 (Ca2+ uptake relative to no genistein)” value [3, 13] of the same molecule?
The value was 0.08246 and 0.05437 and 0.05709.

And the IC50 [4]?
The IC50 was 40.7 ± 2.6 µM.

What about the inhibition at 50 µM ([4]; HEK293S, 50 µM genistein, –60 mV membrane potential, mean ± SEM, n = 13, read-out: inhibition of the hTRPV6-mediated current) of the same molecule?
Its inhibition at 50 µM is 54 ± 4%.

What about the “TRPV6-mediated current amplitude at −60 mV, normalized to the value in the absence of genistein” value ([4]; Conc 6.25 (µM per Supplementary Fig. 1), individual measurements) of the same molecule?
Its value is 0.8818 and 0.9418 and 0.9228 and 0.9734 and 0.9342 and 0.9778 and 0.9793.

What about the “TRPV6-mediated current amplitude at −60 mV, normalized to the value in the absence of genistein” value ([4]; Conc 12.5, individual measurements) of the same molecule?
The value was 0.8695 and 0.8933 and 0.8898 and 0.8819 and 0.904 and 0.9294 and 0.929.

What about the “TRPV6-mediated current amplitude at −60 mV, normalized to the value in the absence of genistein” value ([4]; Conc 25, individual measurements) of the same molecule?
Its value is 0.744 and 0.6559 and 0.7679 and 0.6876 and 0.7485 and 0.5641 and 0.5617.

What about the “TRPV6-mediated current amplitude at −60 mV, normalized to the value in the absence of genistein” value ([4]; Conc 50, individual measurements) of the same molecule?
Its value is 0.3726 and 0.4985 and 0.3764 and 0.4722 and 0.3722 (2×).

What about the “Hill coefficient nHill, current inhibition” value ([4]; current amplitude at −60 mV, logistic fit, n = 7) of the same molecule?
The value was 1.80 and 1.80 ± 0.13.

What about the IC50 [5] of the same molecule?
The IC50 was 184 ± 24 µM.

What about the “Hill coefficient nHill” value ([5]; H582A mutant, n = 3) of the same molecule?
The value was 0.73 ± 0.04.

And the “normalized change in F340/F380 (Ca2+ uptake relative to no genistein)” value ([5]; Conc 3, individual experiments)?
The value was 1.0287 and 0.8943 and 0.9077.

And the “normalized change in F340/F380 (Ca2+ uptake relative to no genistein)” value [5, 7]?
The value was 0.885 and 0.8976 and 0.8985.

What about the “normalized change in F340/F380 (Ca2+ uptake relative to no genistein)” value [5, 8] of the same molecule?
The value was 0.8976 and 0.8451 and 0.809.

And the “normalized change in F340/F380 (Ca2+ uptake relative to no genistein)” value [5, 9]?
The value was 0.6519 and 0.7074 and 0.5784.

What about the “normalized change in F340/F380 (Ca2+ uptake relative to no genistein)” value [5, 10] of the same molecule?
Its value is 0.3755 and 0.336 and 0.3944.

And the “normalized change in F340/F380 (Ca2+ uptake relative to no genistein)” value [5, 11]?
The value was 0.155 and 0.378 and 0.368.

And the “normalized change in F340/F380 (Ca2+ uptake relative to no genistein)” value [5, 12]?
Its value is 0.1504 and 0.2134 and 0.1508.

With human TRPV6 (natural protein) as the molecule, how does the stoichiometry N [6] read?
The stoichiometry N was 4.
